The values that follow come from ChEMBL document CHEMBL1144947, “L-Serine and glycine based ceramide analogues as transdermal permeation enhancers: polar head size and hydrogen bonding” (2003).

Test [1] is filed under the species Homo sapiens. Briefly: Enhancement ratio in theophylline permeation through human skin from isopropyl myristate (IPM) suspension (in vitro). Type of test: functional.
The species entered for test [2] is Homo sapiens. Briefly: Enhancement ratio in theophylline permeation through human skin from water (in vitro). Format: functional.

`CCCCCCCCCCCCOC(=O)CNC(=O)CCCCCCCCCCC`: the ER in test [1] was 1.11; in test [2] it was 12.5.

For the compound `CCCCCCCCCCCCOC(=O)C(CO)NC(=O)C(CO)NC(=O)CCCCCCCCCCC` (centres undefined), the figures for the ER in test [1] and in test [2] were 1.07 and 1.26, respectively.

As for `CCCCCCCCCCCCOC(=O)C(CO)NC(=O)C(O)C(O)C(=O)OCCCCCCCCCCC` (centres undefined), the ER in test [1] turned out to be 1.45; in test [2], 1.39.

As to `CCCCCCCCCCCCOC(=O)CNC(=O)CNC(=O)CCCCCCCCCCC`, the ER in test [1] was 1.09; in test [2], 2.28.

As to `CCCCCCCC/C=C/CCCCCCCC(=O)NC(CO)C(=O)OCCCCCCCCCCCC` (centres undefined), the ER in test [1] is reported as 1.49; in test [2], 1.26.

Consider `CCCCCCCCCCCCN1CCCCCC1=O` [LAUROCAPRAM], for which the ER in test [1] came to 0.6; in test [2], 2.5.

Take `CCCCCCCCCCCCOC(=O)C(CO)NC(=O)CCCCCCCCCCC` (centres undefined): the figures for the ER in test [1] and in test [2] were 1.21 and 2.74, respectively.
